Results as given in the CheMixHub drug solubility set.

Assay: xn = mol fraction of the nth substance listed, in the solute-free solvent

SMILES: NC(=O)NC1NC(=O)NC1=O (stereo not given) + O + CO
- solubility (g/100 g solution) (288.15 K, x2 = 0.2): 0.0735
- solubility (g/100 g solution) (288.15 K, x2 = 0.359): 0.114
- solubility (g/100 g solution) (288.15 K, x2 = 0.599): 0.212
- solubility (g/100 g solution) (288.15 K, x2 = 0.771): 0.239
- solubility (g/100 g solution) (288.15 K, x2 = 0.9): 0.319
- solubility (g/100 g solution) (293.15 K, x2 = 0.2): 0.0876
- solubility (g/100 g solution) (293.15 K, x2 = 0.359): 0.138
- solubility (g/100 g solution) (293.15 K, x2 = 0.599): 0.27
- solubility (g/100 g solution) (293.15 K, x2 = 0.771): 0.328
- solubility (g/100 g solution) (293.15 K, x2 = 0.9): 0.389
- solubility (g/100 g solution) (298.15 K, x2 = 0.2): 0.104
- solubility (g/100 g solution) (298.15 K, x2 = 0.359): 0.175
- solubility (g/100 g solution) (298.15 K, x2 = 0.599): 0.328
- solubility (g/100 g solution) (298.15 K, x2 = 0.771): 0.424
- solubility (g/100 g solution) (298.15 K, x2 = 0.9): 0.506
- solubility (g/100 g solution) (303.15 K, x2 = 0.2): 0.134
- solubility (g/100 g solution) (303.15 K, x2 = 0.359): 0.205
- solubility (g/100 g solution) (303.15 K, x2 = 0.599): 0.408
- solubility (g/100 g solution) (303.15 K, x2 = 0.771): 0.526
- solubility (g/100 g solution) (303.15 K, x2 = 0.9): 0.642
- solubility (g/100 g solution) (308.15 K, x2 = 0.2): 0.155
- solubility (g/100 g solution) (308.15 K, x2 = 0.359): 0.255
- solubility (g/100 g solution) (308.15 K, x2 = 0.599): 0.519
- solubility (g/100 g solution) (308.15 K, x2 = 0.771): 0.694
- solubility (g/100 g solution) (308.15 K, x2 = 0.9): 0.836
- solubility (g/100 g solution) (313.15 K, x2 = 0.2): 0.188
- solubility (g/100 g solution) (313.15 K, x2 = 0.359): 0.297
- solubility (g/100 g solution) (313.15 K, x2 = 0.599): 0.629
- solubility (g/100 g solution) (313.15 K, x2 = 0.771): 0.866
- solubility (g/100 g solution) (313.15 K, x2 = 0.9): 1.05
- solubility (g/100 g solution) (318.15 K, x2 = 0.2): 0.219
- solubility (g/100 g solution) (318.15 K, x2 = 0.359): 0.357
- solubility (g/100 g solution) (318.15 K, x2 = 0.599): 0.74
- solubility (g/100 g solution) (318.15 K, x2 = 0.771): 1.06
- solubility (g/100 g solution) (318.15 K, x2 = 0.9): 1.29
- solubility (g/100 g solution) (323.15 K, x2 = 0.2): 0.264
- solubility (g/100 g solution) (323.15 K, x2 = 0.359): 0.443
- solubility (g/100 g solution) (323.15 K, x2 = 0.599): 0.895
- solubility (g/100 g solution) (323.15 K, x2 = 0.771): 1.28
- solubility (g/100 g solution) (323.15 K, x2 = 0.9): 1.53
- solubility (g/100 g solution) (328.15 K, x2 = 0.2): 0.299
- solubility (g/100 g solution) (328.15 K, x2 = 0.359): 0.521
- solubility (g/100 g solution) (328.15 K, x2 = 0.599): 1.08
- solubility (g/100 g solution) (328.15 K, x2 = 0.771): 1.55
- solubility (g/100 g solution) (328.15 K, x2 = 0.9): 1.86
- solubility (g/100 g solution) (333.15 K, x2 = 0.2): 0.353
- solubility (g/100 g solution) (333.15 K, x2 = 0.359): 0.582
- solubility (g/100 g solution) (333.15 K, x2 = 0.599): 1.23
- solubility (g/100 g solution) (333.15 K, x2 = 0.771): 1.94
- solubility (g/100 g solution) (333.15 K, x2 = 0.9): 2.27

SMILES: NC(=O)NC1NC(=O)NC1=O (stereo not given) + OCCO + CO
- solubility (g/100 g solution) (288.15 K, x2 = 0.154): 0.124
- solubility (g/100 g solution) (288.15 K, x2 = 0.326): 0.188
- solubility (g/100 g solution) (288.15 K, x2 = 0.521): 0.305
- solubility (g/100 g solution) (288.15 K, x2 = 0.744): 0.455
- solubility (g/100 g solution) (293.15 K, x2 = 0.154): 0.146
- solubility (g/100 g solution) (293.15 K, x2 = 0.326): 0.22
- solubility (g/100 g solution) (293.15 K, x2 = 0.521): 0.338
- solubility (g/100 g solution) (293.15 K, x2 = 0.744): 0.481
- solubility (g/100 g solution) (298.15 K, x2 = 0.154): 0.174
- solubility (g/100 g solution) (298.15 K, x2 = 0.326): 0.268
- solubility (g/100 g solution) (298.15 K, x2 = 0.521): 0.387
- solubility (g/100 g solution) (298.15 K, x2 = 0.744): 0.55
- solubility (g/100 g solution) (303.15 K, x2 = 0.154): 0.21
- solubility (g/100 g solution) (303.15 K, x2 = 0.326): 0.336
- solubility (g/100 g solution) (303.15 K, x2 = 0.521): 0.447
- solubility (g/100 g solution) (303.15 K, x2 = 0.744): 0.634
- solubility (g/100 g solution) (308.15 K, x2 = 0.154): 0.242
- solubility (g/100 g solution) (308.15 K, x2 = 0.326): 0.395
- solubility (g/100 g solution) (308.15 K, x2 = 0.521): 0.531
- solubility (g/100 g solution) (308.15 K, x2 = 0.744): 0.702
- solubility (g/100 g solution) (313.15 K, x2 = 0.154): 0.287
- solubility (g/100 g solution) (313.15 K, x2 = 0.326): 0.438
- solubility (g/100 g solution) (313.15 K, x2 = 0.521): 0.613
- solubility (g/100 g solution) (313.15 K, x2 = 0.744): 0.78
- solubility (g/100 g solution) (318.15 K, x2 = 0.154): 0.338
- solubility (g/100 g solution) (318.15 K, x2 = 0.326): 0.508
- solubility (g/100 g solution) (318.15 K, x2 = 0.521): 0.66
- solubility (g/100 g solution) (318.15 K, x2 = 0.744): 0.851
- solubility (g/100 g solution) (323.15 K, x2 = 0.154): 0.396
- solubility (g/100 g solution) (323.15 K, x2 = 0.326): 0.566
- solubility (g/100 g solution) (323.15 K, x2 = 0.521): 0.756
- solubility (g/100 g solution) (323.15 K, x2 = 0.744): 1
- solubility (g/100 g solution) (328.15 K, x2 = 0.154): 0.461
- solubility (g/100 g solution) (328.15 K, x2 = 0.326): 0.651
- solubility (g/100 g solution) (328.15 K, x2 = 0.521): 0.83
- solubility (g/100 g solution) (328.15 K, x2 = 0.744): 1.09
- solubility (g/100 g solution) (333.15 K, x2 = 0.154): 0.524
- solubility (g/100 g solution) (333.15 K, x2 = 0.326): 0.732
- solubility (g/100 g solution) (333.15 K, x2 = 0.521): 0.938
- solubility (g/100 g solution) (333.15 K, x2 = 0.744): 1.25

SMILES: NC(=O)NC1NC(=O)NC1=O (stereo not given) + OCCO + O
- solubility (g/100 g solution) (288.15 K, x2 = 0.075): 0.367
- solubility (g/100 g solution) (288.15 K, x2 = 0.177): 0.387
- solubility (g/100 g solution) (288.15 K, x2 = 0.327): 0.439
- solubility (g/100 g solution) (288.15 K, x2 = 0.564): 0.406
- solubility (g/100 g solution) (288.15 K, x2 = 0.744): 0.466
- solubility (g/100 g solution) (293.15 K, x2 = 0.075): 0.468
- solubility (g/100 g solution) (293.15 K, x2 = 0.177): 0.478
- solubility (g/100 g solution) (293.15 K, x2 = 0.327): 0.481
- solubility (g/100 g solution) (293.15 K, x2 = 0.564): 0.49
- solubility (g/100 g solution) (293.15 K, x2 = 0.744): 0.515
- solubility (g/100 g solution) (298.15 K, x2 = 0.075): 0.57
- solubility (g/100 g solution) (298.15 K, x2 = 0.177): 0.581
- solubility (g/100 g solution) (298.15 K, x2 = 0.327): 0.62
- solubility (g/100 g solution) (298.15 K, x2 = 0.564): 0.601
- solubility (g/100 g solution) (298.15 K, x2 = 0.744): 0.628
- solubility (g/100 g solution) (303.15 K, x2 = 0.075): 0.749
- solubility (g/100 g solution) (303.15 K, x2 = 0.177): 0.732
- solubility (g/100 g solution) (303.15 K, x2 = 0.327): 0.747
- solubility (g/100 g solution) (303.15 K, x2 = 0.564): 0.725
- solubility (g/100 g solution) (303.15 K, x2 = 0.744): 0.712
- solubility (g/100 g solution) (308.15 K, x2 = 0.075): 0.887
- solubility (g/100 g solution) (308.15 K, x2 = 0.177): 0.858
- solubility (g/100 g solution) (308.15 K, x2 = 0.327): 0.847
- solubility (g/100 g solution) (308.15 K, x2 = 0.564): 0.819
- solubility (g/100 g solution) (308.15 K, x2 = 0.744): 0.779
- solubility (g/100 g solution) (313.15 K, x2 = 0.075): 1.12
- solubility (g/100 g solution) (313.15 K, x2 = 0.177): 1.02
- solubility (g/100 g solution) (313.15 K, x2 = 0.327): 1
- solubility (g/100 g solution) (313.15 K, x2 = 0.564): 0.962
- solubility (g/100 g solution) (313.15 K, x2 = 0.744): 0.924
- solubility (g/100 g solution) (318.15 K, x2 = 0.075): 1.37
- solubility (g/100 g solution) (318.15 K, x2 = 0.177): 1.24
- solubility (g/100 g solution) (318.15 K, x2 = 0.327): 1.17
- solubility (g/100 g solution) (318.15 K, x2 = 0.564): 1.1
- solubility (g/100 g solution) (318.15 K, x2 = 0.744): 1.03
- solubility (g/100 g solution) (323.15 K, x2 = 0.075): 1.67
- solubility (g/100 g solution) (323.15 K, x2 = 0.177): 1.47
- solubility (g/100 g solution) (323.15 K, x2 = 0.327): 1.43
- solubility (g/100 g solution) (323.15 K, x2 = 0.564): 1.29
- solubility (g/100 g solution) (323.15 K, x2 = 0.744): 1.2
- solubility (g/100 g solution) (328.15 K, x2 = 0.075): 1.93
- solubility (g/100 g solution) (328.15 K, x2 = 0.177): 1.75
- solubility (g/100 g solution) (328.15 K, x2 = 0.327): 1.67
- solubility (g/100 g solution) (328.15 K, x2 = 0.564): 1.44
- solubility (g/100 g solution) (328.15 K, x2 = 0.744): 1.33
- solubility (g/100 g solution) (333.15 K, x2 = 0.075): 2.38
- solubility (g/100 g solution) (333.15 K, x2 = 0.177): 2.09
- solubility (g/100 g solution) (333.15 K, x2 = 0.327): 1.88
- solubility (g/100 g solution) (333.15 K, x2 = 0.564): 1.7
- solubility (g/100 g solution) (333.15 K, x2 = 0.744): 1.54
